This passage reports IC50 results from US20130217664A1, “NOVEL COMPOUNDS USEFUL FOR THE TREATMENT OF DEGENERATIVE AND INFLAMMATORY DISEASES” (priority 2012, published 2013).

Where two headings read alike, the source gives them in different places.

One assay addresses T1, human TYK2 (Homo sapiens, UniProt P29597).
T1 construct: catalytic domain (amino acids 871-1187; catalog number 08-147); purchased Carna Biosciences 08-147
T1 sequence (P29597 871-1187): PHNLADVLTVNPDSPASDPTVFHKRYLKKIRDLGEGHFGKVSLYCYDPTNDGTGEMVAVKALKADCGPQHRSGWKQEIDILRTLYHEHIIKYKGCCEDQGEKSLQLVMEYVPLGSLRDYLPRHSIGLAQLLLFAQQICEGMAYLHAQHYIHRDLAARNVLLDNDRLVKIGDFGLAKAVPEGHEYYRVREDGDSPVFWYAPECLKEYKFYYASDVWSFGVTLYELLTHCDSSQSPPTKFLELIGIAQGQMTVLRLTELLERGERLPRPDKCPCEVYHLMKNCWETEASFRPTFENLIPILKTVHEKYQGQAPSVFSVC
The assay can be described thus: TYK2 inhibition assay. Conditions: recombinant human TYK2 catalytic domain, polyGT substrate. In kind it is biochemical. In outline: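 Radiometric kinase reaction run 90 min at 30 °C, stopped with phosphoric acid, washed and scintillation-counted.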

The subject of assay [1] is pSTAT1(2)-luciferase reporter in HeLa cells triggered with human OSM. The assay can be described thus: JAK-STAT signalling assay. In kind it is cell-based. The conditions noted are these: HeLa cells, pSTAT1(2)-luciferase reporter, human OSM 33 ng/mL, read-out: JAK-STAT IC50. In outline: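 Compound added 60 min before 33 ng/mL (final) human OSM; after overnight stimulation at 37 °C, luciferase signal from a transiently transfected pSTAT1(2) reporter in HeLa cells was read, with LacZ as internal control. EC50 derived from percent-inhibition dose-response curves.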

The subject of another assay is CTLL-2 cell line. The assay can be described thus: CTLL2 viability assay. In kind it is cell-based. The conditions noted are these: Mus musculus, IL-2 dependent CTLL2 viability, 24 h, ATP-lite. An excerpt:
The protocol describes the methods to analyse the activity of compounds on their ability to sustain the IL2-dependent viability of CTLL2.
Final DMSO concentration was 0.1%.

A further assay concerns BA/F3 cell line. Nature of the assay: BA/F3 viability assay. Conditions: Mus musculus, BaF3, 48 h, read-out: BA/F3 IC50.

As for `CCc1cc(C2CN(S(C)(=O)=O)C2)ncc1N(C)c1cc2c(cn1)ncn2C` [Compound 328, [4-Ethyl-6-(1-methanesulfonyl-azetidin-3-yl)-pyridin-3-yl]-methyl-(1-methyl-1H-imidazo[4,5-c]pyridin-6-yl)-amine], the IC50 is 501 to 1000 nM at human TYK2, over 1000 nM in assay [1], over 1000 nM with CTLL-2 cell line and over 5000 nM with BA/F3 cell line.

Regarding `CCc1cc(C2CN(C(=O)C(F)F)C2)ncc1N(C)c1cc2c(cn1)ncn2C` [Compound 333, 1-(3-{4-Ethyl-5-[methyl-(1-methyl-1H-imidazo[4,5-c]pyridin-6-yl)-amino]-pyridin-2-yl}-azetidin-1-yl)-2,2-difluoro-ethanone], the IC50 at human TYK2 is 501 to 1000 nM; in assay [1] it was over 1000 nM; with CTLL-2 cell line, over 1000 nM; in the assay on BA/F3 cell line, over 5000 nM.

In the case of `CCc1cc(-c2cnn(C)c2)ccc1N(C)c1cc2c(cn1)ncn2C` [Compound 93, N-(2-Ethyl-4-(1-methyl-1H-pyrazol-4-yl)phenyl)-N,1-dimethyl-1H-imidazo[4,5-d]pyridin-6-amine], the IC50 at human TYK2 was 0.01 to 100 nM; in assay [1] (Homo sapiens, HeLa) it was 1 to 500 nM; with CTLL-2 cell line it was over 1000 nM; with BA/F3 cell line it was over 5000 nM.

Regarding `CCc1cc(C2CN(S(=O)(=O)C(F)F)C2)ncc1N(C)c1cc2c(cn1)ncn2C` [Compound 329, {6-[1-(Difluoro-methanesulfonyl)-azetidin-3-yl]-4-ethyl-pyridin-3-yl}-methyl-(1-methyl-1H-imidazo[4,5-c]pyridin-6-yl)-amine], the IC50 was over 1000 nM at human TYK2, 1 to 500 nM in assay [1], 501 to 1000 nM with CTLL-2 cell line and over 5000 nM in the assay on BA/F3 cell line.

Take `CCc1cc(-c2cncnc2)ccc1N(C)c1cc2c(cn1)ncn2C` [Compound 95, N-(2-ethyl-4-(pyrimidin-5-yl)phenyl)-N,1-dimethyl-1H-imidazo[4,5-c]pyridin-6-amine]: the IC50 at human TYK2 was 0.01 to 100 nM; in assay [1] (Homo sapiens, HeLa) it was 501 to 1000 nM; in the assay on CTLL-2 cell line, over 1000 nM; with BA/F3 cell line it was over 5000 nM.

On to `CCc1cc(C(C)O)ccc1N(C)c1cc2c(cn1)ncn2C` (stereo not shown) [Compound 101, 1-(3-Ethyl-4-(methyl(1-methyl-1H-imidazo[4,5-c]pyridin-6-yl)amino)phenyl)ethanol], for which the IC50 at human TYK2 is 0.01 to 100 nM; in assay [1] (Homo sapiens, HeLa), 1 to 500 nM; in the assay with CTLL-2 cell line, over 1000 nM; with BA/F3 cell line, over 5000 nM.

With `CCc1cc(CNS(C)(=O)=O)cc(F)c1N(C)c1cc2c(cn1)ncn2C` [Compound 323, N-{3-Ethyl-5-fluoro-4-[methyl-(1-methyl-1H-imidazo[4,5-c]pyridin-6-yl)-amino]-benzyl}-methanesulfonamide], the IC50 at human TYK2 was 0.01 to 100 nM; in assay [1] (Homo sapiens, HeLa), 1 to 500 nM; in the assay with CTLL-2 cell line, over 1000 nM; in the assay on BA/F3 cell line, over 5000 nM.

Regarding `CCc1cc(CNS(=O)(=O)C(F)F)ncc1N(C)c1cc2c(cn1)ncn2C` [Compound 343, N-{4-Ethyl-5-[methyl-(1-methyl-1H-imidazo[4,5-c]pyridin-6-yl)-amino]-pyridin-2-ylmethyl}-C,C-difluoro-methane sulfonamide], the IC50 at human TYK2 is 501 to 1000 nM; in assay [1] it was 501 to 1000 nM; with CTLL-2 cell line, over 1000 nM.

As for `CCc1cc(CNS(C)(=O)=O)c(F)cc1N(C)c1cc2c(cn1)ncn2C` [Compound 325, N-{5-Ethyl-2-fluoro-4-[methyl-(1-methyl-1H-imidazo[4,5-c]pyridin-6-yl)-amino]-benzyl}-methanesulfonamide], the IC50 on human TYK2 was 101 to 500 nM; in assay [1] (Homo sapiens, HeLa), 1 to 500 nM; in the assay with CTLL-2 cell line it was over 1000 nM; in the assay with BA/F3 cell line it was over 5000 nM.

Consider `CCc1cc(-c2cnc(NC(C)=O)nc2)ccc1N(C)c1cc2c(cn1)ncn2C` [Compound 115, N-(5-(3-Ethyl-4-(methyl(1-methyl-1H-imidazo[4,5-c]pyridin-6-yl)amino)phenyl)pyrimidin-2-yl)acetamide], for which the IC50 is 0.01 to 100 nM on human TYK2; 1 to 500 nM in assay [1] (Homo sapiens, HeLa); over 1000 nM in the assay on CTLL-2 cell line; over 5000 nM in the assay on BA/F3 cell line.

In the case of `CCc1cc(CN(C)S(C)(=O)=O)c(F)cc1N(C)c1cc2c(cn1)ncn2C` [Compound 319, N-{5-Ethyl-2-fluoro-4-[methyl-(1-methyl-1H-imidazo[4,5-c]pyridin-6-yl)-amino]-benzyl}-N-methyl-methanesulfonamide], the IC50 on human TYK2 is 0.01 to 100 nM; in assay [1] (Homo sapiens, HeLa), 501 to 1000 nM; in the assay with CTLL-2 cell line, over 1000 nM; in the assay on BA/F3 cell line it was 1000 to 5000 nM.

In the case of `CCc1cc(CNS(=O)(=O)C(F)F)c(F)cc1N(C)c1cc2c(cn1)ncn2C` [Compound 327, N-{5-Ethyl-2-fluoro-4-[methyl-(1-methyl-M-imidazo[4,5-c]pyridin-6-yl)-amino]-benzyl}-C,C-difluoro-methanesulfonamide], the IC50 lay within 0.01 to 100 nM on human TYK2; 1 to 500 nM in assay [1] (Homo sapiens, HeLa); 501 to 1000 nM in the assay with CTLL-2 cell line; 1000 to 5000 nM in the assay on BA/F3 cell line.

As to `CCc1cc(C2CN(C(=O)C(F)(F)F)C2)ncc1N(C)c1cc2c(cn1)ncn2C` [Compound 334, 1-(3-{4-Ethyl-5-[methyl-(1-methyl-1H-imidazo[4,5-c]pyridin-6-yl)-amino]-pyridin-2-yl}-azetidin-1-yl)-2,2,2-trifluoro-ethanone], the IC50 on human TYK2 was 501 to 1000 nM; in assay [1] it was over 1000 nM; in the assay with CTLL-2 cell line, over 1000 nM; with BA/F3 cell line it was over 5000 nM.

Regarding `CCc1cc(CO)ccc1N(C)c1cc2c(cn1)ncn2C` [Compound 81, (3-Ethyl-4-(methyl(1-methyl-1H-imidazo[4,5-c]pyridin-6-yl)amino)phenyl)MeOH], the IC50 is 0.01 to 100 nM at human TYK2; 1 to 500 nM in assay [1] (Homo sapiens, HeLa); over 1000 nM in the assay on CTLL-2 cell line; over 5000 nM with BA/F3 cell line.
